Source: patent US20240252488A1 (KOREA RESEARCH INSTITUTE OF CHEMICAL TECHNOLOGY, priority 2020, published 2024)
Structures can show the parent of a compound that is named as a salt.

How the values were obtained:
MLKL = biological target: T1, MLKL (Homo sapiens, UniProt Q8NB16); test: Measurement of binding affinity with MLKL receptor (competitive binding assay, Kd); set-up: made in house; host or cells: HEK 293 cell line (T7 phage in E. coli BL21-derived host is also described)
T1 sequence (Q8NB16 1-471): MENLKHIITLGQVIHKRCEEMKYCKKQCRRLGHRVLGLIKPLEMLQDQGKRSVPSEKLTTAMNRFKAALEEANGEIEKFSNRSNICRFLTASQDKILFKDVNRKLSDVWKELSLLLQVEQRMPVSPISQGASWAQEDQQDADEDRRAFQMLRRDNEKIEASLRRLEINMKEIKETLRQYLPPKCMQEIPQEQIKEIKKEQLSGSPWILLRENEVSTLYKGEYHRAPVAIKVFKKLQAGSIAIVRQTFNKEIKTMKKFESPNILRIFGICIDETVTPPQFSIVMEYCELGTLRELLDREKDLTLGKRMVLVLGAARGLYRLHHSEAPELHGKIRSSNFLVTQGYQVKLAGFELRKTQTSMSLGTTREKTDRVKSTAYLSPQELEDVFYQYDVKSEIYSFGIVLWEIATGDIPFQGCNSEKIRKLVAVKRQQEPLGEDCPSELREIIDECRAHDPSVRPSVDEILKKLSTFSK
Description: Measurement of Binding Affinity with MLKL Receptor (Competitive Binding Assay)
The binding affinity was evaluated by measuring the Kd value in the following method.
To prepare kinase-tagged T7 phage strains in an E. coli host derived from the BL21 strain, E. coli were grown to log-phase and infected with T7 phage and incubated with shaking at 32° C. until lysis. The lysates were centrifuged and filtered to remove cell debris. For kinase production, it was expressed in human embryonic kidney cell line (HEK 293 cell line), and subsequently tagged with DNA for qPCR detection.
The liganded beads were blocked with excess biotin and washed with blocking buffer (SeaBlock (Pierce), 1% BSA, 0.05% Tween 20, 1 mM DTT) to remove unbound ligand and to reduce non-specific binding. […] Test compounds were prepared as 111× stocks in 100% DMSO.
The compounds were then diluted directly into the assays such that the final concentration of DMSO was 0.9%. All reactions performed in polypropylene 384-well plate. Each was a final volume of 0.02 ml. […] The kinase concentration in the eluates was measured by qPCR.

FADD−/− Jurkat cells = test: Necroptosis inhibition assay, TNF-α-induced necroptosis (CellTiter-Glo 2.0); type: cell-based, human; conditions: TNF-α 15 ng/mL
Description: Necroptosis Inhibition Assay
Necroptosis inhibition was evaluated by the following method.
80 μL of FADD gene-defective human T lymphocyte cells (FADD−/− Jurkat cells) were equally distributed into each well at 5.0×10^5 cells/mL in a white 96-well plate with a transparent bottom. 20 μL of the medium containing test compound was treated in each well so that the final concentration of the compound was 0.1, 1, and 10 μM, and reacted at room temperature for 30 minutes. After the 30-minute reaction was over, TNF (tumor necrosis factor)-α was treated in the corresponding well so that the final concentration of TNF-α was 15 ng/mL in order to induce necroptosis. It was cultured in a 5% CO2, 37° C. incubator for 20 to 24 hours.
After incubation, the 96-well plate was left at room temperature for 30 minutes. After 30 minutes, Promega's CellTiter-Glo 2.0 reagent was diluted 1:3 with PBS and 100 μL of the diluted solution was added to each well to confirm cell viability by measuring the amount of ATP. After the treatment, the plate was shielded from light and incubated at room temperature for 2 minutes with orbital shaking, and then left at room temperature for 10 minutes without shaking. After measuring the luminescence at 0.5 seconds per well using a plate scanner, the cytotoxicity and necroptosis inhibition rate for the compound were calculated using the measured values.

Structure (SMILES) | Kd (MLKL) [nM] | also measured
Cc1cc(Nc2ncc(Cl)c(Nc3ccccc3S(=O)(=O)C(C)C)n2)c(OC(C)C)cc1C1CCNCC1 [Ceritinib (C2)] | > 10000 | –
Nc1ncc(C2=CCN(C(=O)CCCCCNC(=O)C3CN(c4cccc5c4C(=O)N(C4CCC(=O)NC4=O)C5=O)C3)CC2)cc1C(=O)O[C@@H](C(=O)Nc1ccc(F)cc1)c1ccccc1 (stereo partly drawn) [TDH-078, (R)-2-((4-fluorophenyl)amino)-2-oxo-1-phenylethyl 6-amino-1′-(6-(1-(2-(2,6-dioxopiperidin-3-yl)-1,3-dioxoisoindolin-4-yl)azetidine-3-carboxamido)hexanoyl)-1′,2′,3′,6′-tetrahydro-[3,4′-bipyridine]-5-carboxylate] | 90 | –
Nc1ncc(C2=CCNCC2)cc1C(=O)O[C@@H](C(=O)Nc1ccc(F)cc1)c1ccccc1 [TDH-070, (R)-2-((4-fluorophenyl)amino)-2-oxo-1-phenylethyl 6-amino-1′,2′,3′,6′-tetrahydro-[3,4′-bipyridine]-5-carboxylate hydrochloride] | 110 | –
Nc1ncc(Br)nc1C(=O)N[C@H](C(=O)Nc1ccc(F)cc1)c1ccccc1 [TDH-067, (S)-3-amino-6-bromo-N-(2-((4-fluorophenyl)amino)-2-oxo-1-phenylethyl)pyrazine-2-carboxamide] | > 10000 | –
Nc1nccnc1C(=O)O[C@@H](C(=O)Nc1ccc(F)cc1)c1ccccc1 [TDH-001, (R)-2-((4-fluorophenyl)amino)-2-oxo-1-phenylethyl 3-aminopyrazine-2-carboxylate] | 94 | –
CC(C)(C)OC(=O)N1CC[C@H](n2cc(-c3cnc(N)c(C(=O)OC(C(=O)Nc4ccc(F)cc4)c4ccccc4)n3)cn2)C1 (stereo partly drawn) [TDH-227, 2-((4-fluorophenyl)amino)-2-oxo-1-phenylethyl 3-amino-6-(1-((S)-1-(tert-butoxycarbonyl)pyrrolidin-3-yl)-1H-pyrazol-4-yl)pyrazine-2-carboxylate] | 12 | –
Nc1ncc(-c2cnn(C3CCNCC3)c2)nc1C(=O)O[C@@H](C(=O)Nc1ccc(F)cc1)c1cccc(Cl)c1 [hydrochloride] | 2 | –
Nc1ncc(C2=CCN(C(=O)CCCCCNC(=O)C3CCN(c4cccc5c4C(=O)N(C4CCC(=O)NC4=O)C5=O)CC3)CC2)cc1C(=O)O[C@@H](C(=O)Nc1ccc(F)cc1)c1ccccc1 (stereo partly drawn) [TDH-080, (R)-2-((4-fluorophenyl)amino)-2-oxo-1-phenylethyl 6-amino-1′-(6-(1-(2-(2,6-dioxopiperidin-3-yl)-1,3-dioxoisoindolin-4-yl)piperidine-4-carboxamido)hexanoyl)-1′,2′,3′,6′-tetrahydro-[3,4′-bipyridine]-5-carboxylate] | 120 | –
CC(C)(C)OC(=O)N1CC=C(c2cnc(N)c(C(=O)O[C@@H](C(=O)Nc3ccc(F)cc3)c3ccccc3)c2)CC1 [TDH-066, (R)-1′-(tert-butyl) 5-(2-((4-fluorophenyl)amino)-2-oxo-1-phenylethyl) 6-amino-3′,6′-dihydro-[3,4′-bipyridine]-1′,5(2′H)-dicarboxylate] | 650 | –
Nc1ncc(C2=CCN(C(=O)COCCOCCNC(=O)C3CCN(c4ccc5c(c4)C(=O)N(C4CCC(=O)NC4=O)C5=O)CC3)CC2)cc1C(=O)O[C@@H](C(=O)Nc1ccc(F)cc1)c1ccccc1 (stereo partly drawn) [TDH-089, (R)-2-((4-fluorophenyl)amino)-2-oxo-1-phenylethyl 6-amino-1′-(2-(2-(2-(1-(2-(2,6-dioxopiperidin-3-yl)-1,3-dioxoisoindolin-5-yl)piperidine-4-carboxamido)ethoxy)ethoxy)acetyl)-1′,2′,3′,6′-tetrahydro-[3,4′-bipyridine]-5-carboxylate] | 56 | –
CN(C(=O)c1nc(-c2cnn(C3CCNCC3)c2)cnc1N)[C@@H](C(=O)Nc1ccc(F)cc1)c1ccccc1 [TDH-490, (R)-3-amino-N-(2-((4-fluorophenyl)amino)-2-oxo-1-phenylethyl)-N-methyl-6-(1-(piperidin-4-yl)-1H-pyrazol-4-yl)pyrazine-2-carboxamide hydrochloride] | 400 | –
Nc1ncc(C2=CCNCC2)nc1C(=O)O[C@@H](C(=O)Nc1ccc(F)cc1)c1ccccc1 [TDH-068, (R)-2-((4-fluorophenyl)amino)-2-oxo-1-phenylethyl 3-amino-6-(1,2,3,6-tetrahydropyridin-4-yl)pyrazine-2-carboxylate hydrochloride] | 380 | –
Nc1nccnc1C(=O)N[C@@H](C(=O)Nc1ccc(F)cc1)c1ccccc1 [TDH-106, (R)-3-amino-N-(2-((4-fluorophenyl)amino)-2-oxo-1-phenylethyl)pyrazine-2-carboxamide] | – | Necroptosis inhibition assay (Rescue %) 1 μM (FADD−/− Jurkat cells; compound 1 μM): 13.76%; Necroptosis inhibition assay (Rescue %) 10 μM (FADD−/− Jurkat cells; compound 10 μM): 34.33%
CC1CCC(NC(=O)[C@H](OC(=O)c2nc(-c3cnn(C4CCNCC4)c3)cnc2N)c2ccccc2)CC1 (stereo partly drawn) [TDH-424, (R)-2-((4-methylcyclohexyl)amino)-2-oxo-1-phenylethyl 3-amino-6-(1-(piperidin-4-yl)-1H-pyrazol-4-yl)pyrazine-2-carboxylate hydrochloride] | 5.1 | –
Nc1ncc(-c2cnn(C3CCN(CCCCCCCCCCNc4cccc5c4C(=O)N(C4CCC(=O)NC4=O)C5=O)CC3)c2)nc1C(=O)O[C@@H](C(=O)Nc1ccc(F)cc1)c1ccccc1 (stereo partly drawn) [TDH-095, (R)-2-((4-fluorophenyl)amino)-2-oxo-1-phenylethyl 3-amino-6-(1-(1-(10-((2-(2,6-dioxopiperidin-3-yl)-1,3-dioxoisoindolin-4-yl)amino)decyl)piperidin-4-yl)-1H-pyrazol-4-yl)pyrazine-2-carboxylate] | 26 | –

The remaining molecules from weak to strong by Kd (MLKL), led by results:

Kd (MLKL) [nM] | Structure (SMILES) | also measured
2 | CCN1CCN(c2ccc(-c3cnc(N)c(C(=O)O[C@@H](C(=O)Nc4ccc(F)cc4)c4ccccc4)n3)cn2)CC1 [TDH-183, (R)-2-((4-fluorophenyl)amino)-2-oxo-1-phenylethyl 3-amino-6-(6-(4-ethylpiperazin-1-yl)pyridin-3-yl)pyrazine-2-carboxylate] | –
1.7 | Nc1ncc(-c2cnn(C3CCNCC3)c2)nc1C(=O)O[C@@H](C(=O)Nc1cccnc1)c1ccccc1 [TDH-468, (R)-2-oxo-1-phenyl-2-(pyridin-3-ylamino)ethyl 3-amino-6-(1-(piperidin-4-yl)-1H-pyrazol-4-yl)pyrazine-2-carboxylate hydrochloride] | –
1.2 | CC(=O)N1CC[C@H](n2cc(-c3cnc(N)c(C(=O)OC(C(=O)Nc4ccc(F)cc4)c4ccccc4)n3)cn2)C1 (stereo partly drawn) [TDH-228, 2-((4-fluorophenyl)amino)-2-oxo-1-phenylethyl 6-(1-((S)-1-acetylpyrrolidin-3-yl)-1H-pyrazol-4-yl)-3-aminopyrazine-2-carboxylate] | –
1.2 | Nc1ncc(-c2cnn(C3CCNCC3)c2)nc1C(=O)OC(C(=O)Nc1ccc(F)cc1)c1ccc(F)cc1 (centres unmarked) [TDH-489, 1-(4-fluorophenyl)-2-((4-fluorophenyl)amino)-2-oxoethyl 3-amino-6-(1-(piperidin-4-yl)-1H-pyrazol-4-yl)pyrazine-2-carboxylate hydrochloride] | –
1.1 | CC(=O)N1CC[C@@H](n2cc(-c3cnc(N)c(C(=O)OC(C(=O)Nc4ccc(F)cc4)c4ccccc4)n3)cn2)C1 (stereo partly drawn) [TDH-229, 2-((4-fluorophenyl)amino)-2-oxo-1-phenylethyl 6-(1-((R)-1-acetylpyrrolidin-3-yl)-1H-pyrazol-4-yl)-3-aminopyrazine-2-carboxylate] | –
0.82 | Cc1ccc(NC(=O)[C@H](OC(=O)c2nc(-c3cnn(C4CCNCC4)c3)cnc2N)c2ccccc2)cc1 [TDH-319, (R)-2-oxo-1-phenyl-2-(p-tolylamino)ethyl 3-amino-6-(1-(piperidin-4-yl)-1H-pyrazol-4-yl)pyrazine-2-carboxylate hydrochloride] | –
0.35 | Nc1ncc(-c2cnn(C3CCNCC3)c2)nc1C(=O)O[C@@H](C(=O)Nc1ccccc1)c1ccccc1 [TDH-463, (R)-2-oxo-1-phenyl-2-(phenylamino)ethyl 3-amino-6-(1-(piperidin-4-yl)-1H-pyrazol-4-yl)pyrazine-2-carboxylate hydrochloride] | –
